Test results reported in article PMC6131557, “Selective Cytotoxicity of Dihydroorotate Dehydrogenase Inhibitors to Human Cancer Cells Under Hypoxia and Nutrient-Deprived Conditions” (Frontiers in Pharmacology, 2018).
Like-named read-outs stand apart in the source and are kept apart here.

Key:
[1] = target: T1, human dihydroorotate dehydrogenase (HsDHODH) (Homo sapiens, UniProt Q02127); test: Inhibition of recombinant human DHODH enzyme activity; format: biochemical; details: recombinant human DHODH; purified enzyme fixed at 10 nM; read-out: IC50 (nM), inhibition of human DHODH
T1 construct: made in house
T1 sequence (Q02127 whole entry): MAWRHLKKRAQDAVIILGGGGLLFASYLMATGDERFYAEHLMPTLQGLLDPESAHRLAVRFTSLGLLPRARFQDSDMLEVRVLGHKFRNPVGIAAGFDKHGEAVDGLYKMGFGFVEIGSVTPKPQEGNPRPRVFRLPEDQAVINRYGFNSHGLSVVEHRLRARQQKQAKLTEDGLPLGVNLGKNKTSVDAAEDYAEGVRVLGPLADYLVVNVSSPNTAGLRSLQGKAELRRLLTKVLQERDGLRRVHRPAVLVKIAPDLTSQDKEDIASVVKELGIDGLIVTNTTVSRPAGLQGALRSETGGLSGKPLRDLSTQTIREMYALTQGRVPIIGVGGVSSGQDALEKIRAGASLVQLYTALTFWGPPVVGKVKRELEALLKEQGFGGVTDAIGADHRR

[2] = test system: HDF cells; test: Cytotoxicity assay (Cell Counting Kit-8 / WST-8) on HDF cells; format: cell-based; details: Homo sapiens
Procedure: For hypoxia and nutrient-deprived culture conditions, cells were incubated under 1% oxygen in glucose and glutamine-free DMEM (Gibco) without FBS.
DLD-1 or HDF cells were seeded at 2.5 × 10^4 cells/well on a 96-well plate with normal medium, and cultured overnight under normal culture condition. The cells were washed with PBS and the medium was replaced to either normal medium or glucose and glutamine-free DMEM without FBS. Test compounds or DMSO as a control were added to the wells. The cells in normal medium were cultured under normal culture conditions, while cells in nutrient-deprived medium were cultured under hypoxia condition. After 24 or 48 h incubation, the cells were washed with PBS, 100 μl of fresh normal medium, and 10 μl of Cell Counting Kit-8 solution (Donjindo, Japan) was added to each well. After 3 h incubation under normal culture condition, the absorbance was measured at 450 nm using SpectraMax M2e-TUY microplate reader (Molecular Devices). Cell viability of test wells was calculated based on absorbance of control wells containing DMSO according to manufacturer’s protocol.

[3] = target: Complexes I–III; test: NADH-cytochrome c reductase (complexes I–III) activity, bovine mitochondria; format: biochemical
Procedure: (§1) Recombinant human DHODH was purified, crystallized, and assayed as previously described ([Inaoka et al., 2016]) without modification. Bovine mitochondrial fractions were prepared as previously described ([Kita et al., 1988]) and NADH dehydrogenase (complex I), succinate:quinone reductase (complex II), quinol oxidase (complexes III–IV), NADH-cytochrome c reductase (complexes I–III), and succinate-cytochrome c (complexes II–III) activities were assayed following an established method ([Takamiya et al., 1986]; [Miyadera et al., 2001]; [Matsumoto et al., 2008]; [Kido et al., 2010]; [Nihashi et al., 2017]).

[4] = target: Complex II–III; test: Succinate-cytochrome c reductase (complexes II–III) activity, bovine mitochondria; format: biochemical
Procedure: as §1

[5] = target: T2, Complex II (Bos taurus, UniProt P35720+Q3T189+Q95123); test: Succinate:quinone reductase (complex II) activity, bovine mitochondria; format: biochemical
T2 construct: from tissue; host or cells: bovine mitochondrial fraction / sub-mitochondrial particles
T2 sequence (P31039 45-665 partner limits assumed): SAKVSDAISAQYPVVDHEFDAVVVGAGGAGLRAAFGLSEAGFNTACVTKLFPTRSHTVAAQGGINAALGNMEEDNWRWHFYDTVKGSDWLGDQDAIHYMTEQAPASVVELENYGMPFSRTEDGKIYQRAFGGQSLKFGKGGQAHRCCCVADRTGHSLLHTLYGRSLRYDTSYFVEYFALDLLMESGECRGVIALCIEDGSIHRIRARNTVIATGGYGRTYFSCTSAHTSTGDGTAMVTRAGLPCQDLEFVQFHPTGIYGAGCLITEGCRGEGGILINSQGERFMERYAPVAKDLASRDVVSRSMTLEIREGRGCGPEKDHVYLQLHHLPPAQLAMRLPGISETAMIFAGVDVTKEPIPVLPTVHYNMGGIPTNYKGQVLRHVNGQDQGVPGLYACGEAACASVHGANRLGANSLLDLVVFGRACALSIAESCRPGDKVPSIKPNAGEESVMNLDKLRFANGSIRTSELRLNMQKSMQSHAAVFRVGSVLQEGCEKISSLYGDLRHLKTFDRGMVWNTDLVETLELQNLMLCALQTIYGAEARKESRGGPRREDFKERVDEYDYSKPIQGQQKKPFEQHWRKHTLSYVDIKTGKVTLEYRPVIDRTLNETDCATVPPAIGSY
T2 sequence (Q3T189 29-280): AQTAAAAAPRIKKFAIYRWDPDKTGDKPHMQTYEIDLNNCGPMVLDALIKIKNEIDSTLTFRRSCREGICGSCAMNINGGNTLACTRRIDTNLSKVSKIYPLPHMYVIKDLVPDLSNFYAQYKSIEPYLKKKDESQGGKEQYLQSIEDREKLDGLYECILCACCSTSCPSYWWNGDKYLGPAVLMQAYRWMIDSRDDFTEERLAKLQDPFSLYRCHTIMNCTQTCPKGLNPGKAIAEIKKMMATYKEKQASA
T2 sequence (P35720 30-169): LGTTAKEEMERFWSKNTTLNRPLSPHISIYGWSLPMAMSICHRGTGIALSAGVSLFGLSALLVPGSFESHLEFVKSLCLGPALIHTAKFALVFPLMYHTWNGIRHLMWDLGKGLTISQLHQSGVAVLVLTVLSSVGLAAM
T2 sequence (Q95123 56-158): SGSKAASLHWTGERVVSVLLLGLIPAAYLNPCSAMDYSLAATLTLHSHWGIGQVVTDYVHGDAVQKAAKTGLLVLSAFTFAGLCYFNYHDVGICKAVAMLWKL

[6] = target: T3, Complex III (Bos taurus, UniProt P00157); test: Quinol oxidase (complex III) activity, bovine mitochondria; format: biochemical; details: ubiquinol oxidase activity
T3 construct: from tissue; host or cells: bovine mitochondrial fraction / sub-mitochondrial particles

[7] = test system: HBC-4; test: 39-cancer cell panel assay: HBC-4; format: cell-based; details: Homo sapiens, HBC4, Br
[8] = test system: BSY-1; test: 39-cancer cell panel assay: BSY-1; format: cell-based; details: Homo sapiens, Br
[9] = test system: HBC-5; test: 39-cancer cell panel assay: HBC-5; format: cell-based; details: Homo sapiens, HBC5, Br
[10] = test system: MCF-7; test: 39-cancer cell panel assay: MCF-7; format: cell-based; details: Homo sapiens, MCF7, Br
[11] = test system: MDA-MB-231; test: 39-cancer cell panel assay: MDA-MB-231; format: cell-based; details: Homo sapiens, Br
[12] = test system: U251; test: 39-cancer cell panel assay: U251; format: cell-based; details: Homo sapiens, U-251, CNS
[13] = test system: SF-268; test: 39-cancer cell panel assay: SF-268; format: cell-based; details: Homo sapiens, CNS
[14] = test system: SNB-75; test: 39-cancer cell panel assay: SNB-75; format: cell-based; details: Homo sapiens, CNS
[15] = test system: SNB-78; test: 39-cancer cell panel assay: SNB-78; format: cell-based; details: Homo sapiens, CNS
[16] = test system: HCC2998; test: 39-cancer cell panel assay: HCC2998; format: cell-based; details: Homo sapiens, HCC 2998, Co
[17] = test system: KM-12; test: 39-cancer cell panel assay: KM-12; format: cell-based, human; details: Co
[18] = test system: HT-29; test: 39-cancer cell panel assay: HT-29; format: cell-based; details: Homo sapiens, Co
[19] = test system: HCT-15; test: 39-cancer cell panel assay: HCT-15; format: cell-based; details: Homo sapiens, Co
[20] = test system: HCT-116; test: 39-cancer cell panel assay: HCT-116; format: cell-based; details: Homo sapiens, Co
[21] = test system: NCI-H23; test: 39-cancer cell panel assay: NCI-H23; format: cell-based; details: Homo sapiens, Lu
[22] = test system: NCI-H226; test: 39-cancer cell panel assay: NCI-H226; format: cell-based; details: Homo sapiens, Lu
[23] = test system: NCI-H522; test: 39-cancer cell panel assay: NCI-H522; format: cell-based; details: Homo sapiens, Lu
[24] = test system: NCI-H460; test: 39-cancer cell panel assay: NCI-H460; format: cell-based; details: Homo sapiens, Lu
[25] = test system: DMS273; test: 39-cancer cell panel assay: DMS273; format: cell-based; details: Homo sapiens, DMS-273, Lu
[26] = test system: DMS114; test: 39-cancer cell panel assay: DMS114; format: cell-based; details: Homo sapiens, DMS-114, Lu
[27] = test system: LOX-IMVI; test: 39-cancer cell panel assay: LOX-IMVI; format: cell-based; details: Homo sapiens, Me
[28] = test system: OVCAR-4; test: 39-cancer cell panel assay: OVCAR-4; format: cell-based; details: Homo sapiens, Ov
[29] = test system: OVCAR-8; test: 39-cancer cell panel assay: OVCAR-8; format: cell-based; details: Homo sapiens, Ov
[30] = test system: SK-OV-3; test: 39-cancer cell panel assay: SK-OV-3; format: cell-based; details: Homo sapiens
[31] = test system: RXF-631L; test: 39-cancer cell panel assay: RXF-631L; format: cell-based; details: Homo sapiens, Re
[32] = test system: ACHN; test: 39-cancer cell panel assay: ACHN; format: cell-based; details: Homo sapiens, Re
[33] = test system: St-4; test: 39-cancer cell panel assay: St-4; format: cell-based; details: Homo sapiens
[34] = test system: MKN1; test: 39-cancer cell panel assay: MKN1; format: cell-based; details: Homo sapiens, MKN-1, St
[35] = test system: MKN7; test: 39-cancer cell panel assay: MKN7; format: cell-based; details: Homo sapiens, MKN-7, St
[36] = test system: MKN28; test: 39-cancer cell panel assay: MKN28; format: cell-based; details: Homo sapiens, MKN-28, St
[37] = test system: MKN45; test: 39-cancer cell panel assay: MKN45; format: cell-based; details: Homo sapiens, MKN-45, St
[38] = read-out: IC50 (μM) HDF (24 h) Hypoxia nutrient (-), hypoxia (1% oxygen), nutrient (-)
[39] = read-out: IC50 (μM) HDF (24 h) Normoxia nutrient (+), normoxia, nutrient (+)

Row | SMILES | IC50 [1] [nM] | IC50 [2, 38] [µM] | IC50 [2, 39] [µM] | IC50 [3] [µM] | IC50 [4] [µM] | inhibition at 5 µM [5] [%] | inhibition at 5 µM [6] [%] | GI50 [7] [µM] | GI50 [8] [µM] | GI50 [9] [µM] | GI50 [10] [µM] | GI50 [11] [µM] | GI50 [12] [µM] | GI50 [13] [µM] | GI50 [14] [µM] | GI50 [15] [µM] | GI50 [16] [µM] | GI50 (μM) KM-12 [17] [µM] | GI50 [18] [µM] | GI50 [19] [µM] | also measured
1 | C/C(=C\Cc1c(O)c(Cl)c(C)c(C=O)c1O)CC/C=C(\C)[C@@H]1CC(=O)C(C)(C)O1 [Compound 1, ascofuranone] | 37.5 ± 12 | 1.5 ± 0.18 | > 100 | 1.5 ± 0.04 | 13 ± 1.7 | 1.5 ± 7.6 | 36 ± 1.2 | 9.1 | 16 | 28 | 9 | 7.4 | 1.5 | 7 | 23 | 23 | 17 | 9.3 | 6.6 | 1.3 | GI50 [20]: 5.1 µM; GI50 [21]: 15 µM; GI50 [22]: 15 µM; GI50 [23]: 8.4 µM; GI50 [24]: 2 µM; GI50 [25]: 5.9 µM; GI50 [26]: 19 µM; GI50 [27]: 2.8 µM; GI50 [28]: 5.9 µM; GI50 [29]: 9.5 µM; GI50 [30]: 13 µM; GI50 [31]: 12 µM; GI50 [32]: 10 µM; GI50 [33]: 14 µM; GI50 [34]: 14 µM; GI50 [35]: 15 µM; GI50 [36]: 9.7 µM; GI50 [37]: 10 µM
2 | CC(C)=CCC/C(C)=C/CC/C(C)=C/Cc1c(O)c(Cl)c(C)c(C=O)c1O [Compound 8] | ~5 | 0.16 ± 0.023 | 61 ± 5.3 | 0.048 ± 0.001 | 0.12 ± 0.013 | 8.2 ± 4.9 | > 80 | 2.2 | 13 | 16 | 1.3 | 2.8 | 0.43 | 0.93 | 0.7 | 16 | 12 | 2.0 | 1.1 | 0.043 | GI50 [20]: 0.46 µM; GI50 [21]: 2.8 µM; GI50 [22]: 10 µM; GI50 [23]: 1.2 µM; GI50 [24]: 0.21 µM; GI50 [25]: 0.45 µM; GI50 [26]: 2.5 µM; GI50 [27]: 0.61 µM; GI50 [28]: 13 µM; GI50 [29]: 0.97 µM; GI50 [30]: 37 µM; GI50 [31]: 11 µM; GI50 [32]: 0.79 µM; GI50 [33]: 1.1 µM; GI50 [34]: 8.2 µM; GI50 [35]: 2.1 µM; GI50 [36]: 1.3 µM; GI50 [37]: 6.4 µM
